Data: PubChem BioAssay (NCI)
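Interpolation was linear, between the two tested concentrations surrounding the appropriate level; five concentrations were tested over 48 hours in 96-well plates. GI50 marks 50% less growth. TGI: total growth inhibition.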

What was measured:
Assay in all cases: NCI anticancer screen, dose series, 48 h
[1] = tested on: COLO 205 colon
[2] = tested on: M14 melanoma
[3] = tested on: NCI-H226 lung
[4] = tested on: NCI-H522 lung
[5] = tested on: NCI/ADR-RES ovarian
[6] = tested on: OVCAR-5 ovarian
[7] = tested on: SF-295 CNS
[8] = tested on: SK-MEL-28 melanoma
[9] = tested on: SN12C renal
[10] = tested on: SR leukemia

## Cn1cc(-c2cc(-c3cn(C)c4ccccc34)[nH]n2)c2ccccc21
[1]
  GI50: 7.98 µM
  TGI: > 100 µM
[2]
  GI50: > 100 µM
  TGI: > 100 µM
[3]
  GI50: 19.8 µM
  TGI: 99 µM
[4]
  GI50: 22.1 µM
  TGI: > 100 µM
[5]
  GI50: 27.6 µM
  TGI: > 100 µM
[6]
  GI50: > 100 µM
  TGI: > 100 µM
[7]
  GI50: 17.1 µM
  TGI: > 100 µM
[8]
  GI50: > 100 µM
  TGI: > 100 µM
[9]
  GI50: 1.95 µM
  TGI: 23.1 µM
[10]
  GI50: 3.46 µM
  TGI: 14.8 µM

## CCN(CC)c1ccc(/C=N/NC(=O)Cc2ccc(Nc3ccnc(C(F)(F)F)c3)cc2)c(O)c1
[1]
  GI50: 1.24 µM
  TGI: > 100 µM
[2]
  GI50: 0.637 µM
  TGI: 5.93 µM
[3]
  GI50: 0.699 µM
  TGI: > 23.5 µM
[4]
  GI50: 1.27 µM
  TGI: > 100 µM
[5]
  GI50: 1.19 µM
  TGI: > 100 µM
[6]
  GI50: 2.42 µM
  TGI: > 100 µM
[7]
  GI50: 0.713 µM
  TGI: > 60 µM
[8]
  GI50: 1.1 µM
  TGI: > 78 µM
[9]
  GI50: 1.15 µM
  TGI: > 100 µM
[10]
  GI50: 0.285 µM
  TGI: > 19.9 µM

## O=c1cc(-c2ccccc2)oc2ccc(Cl)cc12
[1]
  TGI: > 85.7 µM
[2]
  TGI: > 100 µM
[3]
  TGI: > 100 µM
[4]
  TGI: > 100 µM
[5]
  TGI: > 100 µM
[6]
  TGI: > 100 µM
[7]
  TGI: 99.1 µM
[8]
  TGI: > 78.4 µM
[9]
  TGI: > 100 µM
[10]
  TGI: > 46.4 µM

## CC1(C)N=C(N)N=C(N)N1c1ccc(CCCC(=O)Nc2ccc(S(=O)(=O)F)cc2)cc1
[1]
  GI50: 5.59 µM
  TGI: > 100 µM
[2]
  GI50: 5.44 µM
  TGI: > 100 µM
[3]
  GI50: 63.1 µM
  TGI: > 100 µM
[4]
  GI50: 8.4 µM
  TGI: > 100 µM
[5]
  GI50: > 100 µM
  TGI: > 100 µM
[6]
  GI50: 12 µM
  TGI: > 100 µM
[7]
  GI50: 38.6 µM
  TGI: > 100 µM
[8]
  GI50: 16 µM
  TGI: > 100 µM
[9]
  GI50: 6.15 µM
  TGI: > 100 µM
[10]
  GI50: 1.53 µM
  TGI: > 100 µM

## CC(C)(Oc1ccc(-c2cccc3ccccc23)cc1)C(=O)O
[1]
  TGI: > 100 µM
[2]
  TGI: > 100 µM
[3]
  TGI: > 100 µM
[4]
  TGI: > 100 µM
[5]
  TGI: > 100 µM
[6]
  TGI: > 100 µM
[7]
  TGI: > 100 µM
[8]
  TGI: > 100 µM
[9]
  TGI: > 100 µM
[10]
  TGI: > 100 µM

## O=c1[nH]c2cc(Cl)ccc2nc1/C(=N\Nc1ccccc1)C(O)c1ccc2c(c1)OCO2 (stereo not given)
[1]
  TGI: > 100 µM
[2]
  TGI: > 100 µM
[3]
  TGI: > 100 µM
[4]
  TGI: > 100 µM
[5]
  TGI: > 100 µM
[6]
  TGI: > 100 µM
[7]
  TGI: > 100 µM
[8]
  TGI: > 100 µM
[9]
  TGI: > 100 µM
[10]
  TGI: > 100 µM

## O=C(/C=C/c1ccc(O)c(O)c1)N1CCN(c2ccc(Cl)cc2)CC1
[1]
  GI50: 5.11 µM
  TGI: 19.7 µM
[2]
  GI50: 8.98 µM
  TGI: 47.1 µM
[3]
  GI50: 4.63 µM
  TGI: 26.4 µM
[4]
  GI50: 1.83 µM
  TGI: 12.6 µM
[5]
  GI50: 4.61 µM
  TGI: 32.9 µM
[6]
  GI50: 13.3 µM
  TGI: 85.7 µM
[7]
  GI50: 19.1 µM
  TGI: > 100 µM
[8]
  GI50: 11.5 µM
  TGI: 58.5 µM
[9]
  GI50: 4.11 µM
  TGI: 42.2 µM
[10]
  GI50: 3.94 µM
  TGI: 34 µM

## Cc1ccc(-c2nc(NCCOCCOCCN)nc(N3CCN(c4ccccn4)CC3)n2)cc1
[1]
  GI50: 6.89 µM
  TGI: 14.2 µM
[2]
  GI50: 5.52 µM
  TGI: 11.9 µM
[3]
  GI50: 17.4 µM
  TGI: 34.3 µM
[4]
  GI50: 18.4 µM
  TGI: 37 µM
[5]
  GI50: 15.3 µM
  TGI: 31.1 µM
[6]
  GI50: 16.9 µM
  TGI: 32.9 µM
[7]
  GI50: 18.4 µM
  TGI: 38.6 µM
[8]
  GI50: 6.04 µM
  TGI: 12.4 µM
[9]
  GI50: 14 µM
  TGI: 29.5 µM
[10]
  GI50: 5.5 µM
  TGI: 20.7 µM

## CCCCNc1ncnc2c1cnn2-c1ccccc1
[1]
  GI50: 1.15 µM
  TGI: 11.7 µM
[2]
  GI50: 1.42 µM
  TGI: > 45.8 µM
[3]
  GI50: 13.7 µM
  TGI: 86.1 µM
[4]
  GI50: 0.799 µM
  TGI: 9.94 µM
[5]
  GI50: 0.514 µM
  TGI: 5.26 µM
[6]
  GI50: 12.9 µM
  TGI: > 100 µM
[7]
  GI50: 1.88 µM
  TGI: 20.3 µM
[8]
  GI50: 10.1 µM
  TGI: > 100 µM
[9]
  GI50: 6.18 µM
  TGI: > 100 µM
[10]
  GI50: 0.444 µM
  TGI: > 100 µM

## CC(=O)ON(OCc1ccc2ccccc2c1)C(C)=O
[1]
  GI50: > 100 µM
  TGI: > 100 µM
[2]
  GI50: > 100 µM
  TGI: > 100 µM
[3]
  GI50: > 100 µM
  TGI: > 100 µM
[4]
  GI50: > 100 µM
  TGI: > 100 µM
[5]
  GI50: > 100 µM
  TGI: > 100 µM
[6]
  GI50: > 100 µM
  TGI: > 100 µM
[7]
  GI50: > 100 µM
  TGI: > 100 µM
[8]
  GI50: > 100 µM
  TGI: > 100 µM
[9]
  GI50: > 100 µM
  TGI: > 100 µM
[10]
  GI50: 86.5 µM
  TGI: > 100 µM

## O=S(=O)(c1ccccc1)N1CCCC(c2ccccc2)CC1 (stereo not given)
[1]
  TGI: > 100 µM
[2]
  TGI: > 100 µM
[3]
  TGI: > 100 µM
[4]
  TGI: > 100 µM
[5]
  TGI: > 100 µM
[6]
  TGI: > 100 µM
[7]
  TGI: > 100 µM
[8]
  TGI: > 100 µM
[9]
  TGI: > 100 µM
[10]
  TGI: > 100 µM

## Cc1nc2c(C)ccc([N+](=O)[O-])c2c(NCCCN(C)C)c1C
[1]
  TGI: 47.6 µM
[2]
  TGI: 37.6 µM
[3]
  TGI: > 100 µM
[4]
  TGI: > 100 µM
[5]
  TGI: > 100 µM
[6]
  TGI: > 100 µM
[7]
  TGI: > 100 µM
[8]
  TGI: > 54.8 µM
[9]
  TGI: > 100 µM
[10]
  TGI: > 100 µM

## CNC(=O)CCN1CCN(CC/C=C2\c3ccccc3Sc3ccc(Cl)cc32)CC1
[1]
  GI50: 2.48 µM
  TGI: 6 µM
[2]
  GI50: 2.1 µM
  TGI: 4.4 µM
[3]
  GI50: 19 µM
  TGI: 37.9 µM
[4]
  GI50: 20 µM
  TGI: 43.8 µM
[5]
  GI50: 7.08 µM
  TGI: 16.5 µM
[6]
  GI50: 22.6 µM
  TGI: 41.2 µM
[7]
  GI50: 1.84 µM
  TGI: 6.47 µM
[8]
  GI50: 1.76 µM
  TGI: 3.36 µM
[9]
  GI50: 12.1 µM
  TGI: 26.6 µM
[10]
  GI50: 4.19 µM
  TGI: 18.1 µM
